Source: patent publication US20240270748A1 (Merck Patent GmbH, priority 2021, published 2024)

Legend:
SW620 Yap KO cells = test: Viability assay in SW620 Yap KO (Yap independent) cells, CyQuant; type: cell-based; settings: Homo sapiens, SW-620, 96 h, n.d. = value not detectable below threshold given in parentheses, ND = not determinable within the entire range
Procedure: Viability Assay in NCI-H226 (Yap-Dependent) and SW620 Yap KO (Yap Independent) Cells
The ability of YAP-TEAD inhibitors to inhibit tumor cell growth was evaluated using two different cell lines: NCI-H226, which is a YAP dependent cell line, and SW620 cells, where YAP and TAZ were knocked out using CRISPR to generate a YAP independent cell line.
For the assay, cells were treated in duplicates with the test compounds in a 10-point dose, 1:3 dilution steps, with the top concentration starting at 30 μM (final concentration in assay). After a 96 hour incubation at 37° C., 95% rH, and 5% CO2, a cell-permeant DNA-binding dye that stains only healthy cells (CyQUANT®, Promega) was added to the cells, allowing the quantification of cell viability.
Cell Media: The NCI-H226 cells were cultured in the following media: RPMI 1640, +10% FBS, +1× GlutaMAX, +10 mM HEPES, +0.5% Pen/Strep. The SW620-KO cells were cultured in the following media: DMEM/F-12, +10% FBS, +1× GlutaMAX, +10 mM HEPES, +0.5% Pen/Strep.
Reagents: The reagents used are listed below:
Cell culture: The cells were examined using an inverted microscope to check for health, cell density, etc. To dissociate adherent cells, the monolayer of cells was washed once with pre-warmed PBS. After removing the PBS, 3 ml pre-warmed Accutase was added to a F75 flask, dispersed evenly and the flask was allowed to sit in incubator for ˜4-5 minutes.
When a single cell suspension was obtained, 7 ml of prewarmed growth media was added and resuspended with the cells. The cell suspension was transferred to a sterile 15 ml conical centrifuge tube, and spun for 5 min at 300×g, RT. The supernatant was discarded and the pellet was resuspended in 10 ml of pre-warmed growth media.
The total cell count was determined, and 20 μl of the desired cell number was added to each well of a 384 well plate using a Multidrop Combi. The plates were then incubated for 24 hours at 37° C., 95% rH, and 5% CO2.
Compound treatment: 24 hours after seeding, the cells were treated with compounds.
A 1:333 dilution of compounds, diluted in DMSO, was made to get a final concentration of 0.3% DMSO per well. To transfer the compounds to the assay plate, […] was shot from Labcyte low dead volume plates to the cell plates containing 20 μl media/well with the ECHO 555 liquid handling system.
After treatment, the cells were fed with 20 μl fresh pre-warmed assay media using a Multidrop combi.
The assay plates were then incubated for 96 h at 37° C., 95% rH, and 5% CO2.
96 h after treatment 30 μl of CyQuant® reagent was added to the assay plates using a Multidrop combi in the dark. The plates were then incubated for 1 hour at 37° C., 95% rH and 5% CO2. Thereafter, the assay plates were removed from the incubator and allowed to equilibrate to RT for 30 min in the dark without lid. Finally, they were measured using an EnVision microplate reader with a FITC bottom read program.

YAP-TEAD interaction = test: SK-HEP-1 reporter assay (8xTEAD responsive elements driving NanoLuc luciferase); type: cell-based; settings: Homo sapiens, SK-HEP1, SK-HEP-1 reporter assay
Procedure, shortened: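 Reporter read-out: NanoLuc luminescence from 8×TEAD elements stably integrated in SK-HEP-1 cells, after 24 h compound exposure at 37° C. Ten concentrations tested in duplicate, top 30 μM final, 0.3% DMSO; IC50 from curve.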

NCI-H226 cells = test: Viability assay in NCI-H226 (Yap-dependent) cells, CyQuant; type: cell-based, human; settings: Homo sapiens, NCI-H226, 96 h
Procedure, shortened: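 Seeded cells were dosed 24 h later in duplicate (10-point, 1:3 dilutions, top 30 μM final, 0.3% DMSO) and incubated 96 h at 37 °C. Viability was read with CyQUANT DNA dye after 1 h, fluorescence bottom read. NCI-H226 in RPMI 1640 medium; SW620 YAP/TAZ CRISPR knockout in DMEM/F-12 medium.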

SMILES	IC50 (SW620 Yap KO cells)	IC50 (YAP-TEAD interaction; class symbols)	IC50 (NCI-H226 cells; class symbols)	IC50 (YAP-TEAD interaction; n.d. = value not detectable below threshold given in parentheses, ND = not determinable within the entire range)	IC50 (NCI-H226 cells; n.d. = value not detectable below threshold given in parentheses)
Cc1snc2c1c1cc(C(=O)N=S(C)(=O)CCCO)ccc1n2-c1ccc(C(F)(F)F)cc1 (stereo not drawn) [Example C16, N-[(3-hydroxypropyl)(methyl) οχο-λ6-sulfanylidene]-3-methyl-8-[4-(trifluoromethyl)phenyl]-8H-[1,2]thiazolo[3,4-b]indole-5-carboxamide]	> 3 µM	0.01 to 0.1 µM	0.001 to 0.1 µM	–	–
Cn1cc2c3cc(C4CC(Cl)=NO4)ccc3n(-c3ccc(C(F)(F)F)cc3)c2n1 (stereo not drawn) [Example C17, 3-chloro-5-{2-methyl-8-[4-(trifluoromethyl)phenyl]-2H,8H-pyrazolo[3,4-b]indol-5-yl}-4,5-dihydro-1,2-oxazole]	> 30 µM	0.01 to 0.1 µM	0.001 to 0.1 µM	–	–
Cn1nc2c3cc(C4CC(Cl)=NO4)ccc3n(-c3ccc(C(F)(F)F)cc3)c2n1 (stereo not drawn) [Example C18, 3-chloro-5-{2-methyl-4-[4-(trifluoromethyl)phenyl]-2H,4H-[1,2,3]triazolo[4,5-b]indol-7-yl}-4,5-dihydro-1,2-oxazole]	> 30 µM	0.01 to 0.1 µM	0.001 to 0.1 µM	–	–
CN(c1ccc2c(c1)c1cn(C)nc1n2-c1ccc(C(F)(F)F)cc1)S(C)(=O)=O [Example C20, N-methyl-N-{2-methyl-8-[4-(trifluoromethyl)phenyl]-2H,8H-pyrazolo[3,4-b]indol-5-yl}methanesulfonamide]	> 30 µM	0.01 to 0.1 µM	0.001 to 0.1 µM	–	–
Cn1cc2c3cc(NC(=O)c4ccncc4)ccc3n(-c3ccc(C(F)(F)F)cc3)c2n1 [Example C21, N-{2-methyl-8-[4-(trifluoromethyl)-phenyl]-2H,8H-pyrazolo[3,4-b]indol-5-yl}pyridine-4-carboxamide]	> 3 µM	–	0.1 to 1 µM	> 1 µM	–
Cn1nc2c3cc(C(=O)N=S(C)(=O)CCCO)ccc3n(-c3ccc(C(F)(F)F)cc3)c2n1 (stereo not drawn) [Example C25, N-[(3-hydroxypropyl)(methyl)oxo -¿6-sulfanylidene]-2-methyl-4-[4-(trifluoromethyl)phenyl]-2H,4H-[1,2,3]triazolo[4,5-b]indole-7-carboxamide]	> 30 µM	0.01 to 0.1 µM	0.001 to 0.1 µM	–	–
Cn1cc2c3cc(C(=O)O)ccc3n(C34CC(C(F)(F)F)(C3)C4)c2n1 [Example C28, 2-methyl-8-[3-(trifluoromethyl)-bicyclo[1.1.1]pentan-1-yl]-2H,8H-pyrazolo[3,4-b]indole-5-carboxylic acid]	> 30 µM	0.01 to 0.1 µM	–	–	> 10 µM
Cc1snc2c1c1cc(C(=O)N=S(C)(=O)CCO)ccc1n2-c1ccc(C(F)(F)F)cc1 (stereo not drawn) [Example C30, N-[(2-hydroxyethyl)(methyl)oxo-¿6-sulfanylidene]-3-methyl-8-[4-(trifluoromethyl)phenyl]-8H-[1,2]thiazolo[3,4-b]indole-5-carboxamide]	> 3 µM	0.01 to 0.1 µM	0.001 to 0.1 µM	–	–
Cn1nc2c3cc(C(=O)N=S(C)(=O)CCO)ccc3n(-c3ccc(C(F)(F)F)cc3)c2n1 (stereo not drawn) [Example C31, N-[(2-hydroxyethyl)(methyl)oxo-A6-sulfanylidene]-2-methyl-4-[4-(trifluoromethyl)phenyl]-2H,4H-[1,2,3]triazolo[4,5-b]indole-7-carboxamide]	> 30 µM	0.01 to 0.1 µM	0.001 to 0.1 µM	–	–
O=C(O)c1ccc2c(c1)c1cn(C(F)(F)F)nc1n2-c1ccc(C(F)(F)F)cc1 [Example C35, 2-(trifluoromethyl)-8-[4-(trifluoromethyl)phenyl]-2H,8H-pyrazolo[3,4-b]indole-5-carboxylic acid]	> 30 µM	0.01 to 0.1 µM	1 to 10 µM	–	–
Cc1snc2c1c1cc(C(=O)NC3CC3)ccc1n2-c1ccc(C(F)(F)F)cc1 [Example C41, N-cyclopropyl-3-methyl-8-[4-(trifluoromethyl)phenyl]-8H-[1,2]thiazolo [3,4-b]indole-5-carboxamide]	> 30 µM	0.01 to 0.1 µM	0.001 to 0.1 µM	–	–
